Measured values reported in patent US12343326B2, “Psychoactive medicines and their use for treating psychiatric and neurological conditions and disorders” (Transcend Therapeutics, Inc., priority 2021, dated 2025).

Assays:
Experiment in all cases: β-arrestin based GPCR screen (PathHunter / GPCRmax), agonist mode
Type in all cases: cell-based
Set-up in all cases: host or cells: PathHunter cell lines
168 GPCRs [1] = molecular target: 168 GPCRs (Homo sapiens, UniProt O43613)
Experimental: (§1) For agonist determination, cells were incubated with sample to induce response. […] Vehicle concentration was 1%.

168 GPCRs [2] = molecular target: 168 GPCRs (Homo sapiens, UniProt P07550); conditions: ADRB2, Agonist
Experimental: as §1

168 GPCRs [3] = molecular target: 168 GPCRs (Homo sapiens, UniProt P08908); conditions: HTR1A
168 GPCRs (Homo sapiens, UniProt P08908), sequence (P08908 whole entry): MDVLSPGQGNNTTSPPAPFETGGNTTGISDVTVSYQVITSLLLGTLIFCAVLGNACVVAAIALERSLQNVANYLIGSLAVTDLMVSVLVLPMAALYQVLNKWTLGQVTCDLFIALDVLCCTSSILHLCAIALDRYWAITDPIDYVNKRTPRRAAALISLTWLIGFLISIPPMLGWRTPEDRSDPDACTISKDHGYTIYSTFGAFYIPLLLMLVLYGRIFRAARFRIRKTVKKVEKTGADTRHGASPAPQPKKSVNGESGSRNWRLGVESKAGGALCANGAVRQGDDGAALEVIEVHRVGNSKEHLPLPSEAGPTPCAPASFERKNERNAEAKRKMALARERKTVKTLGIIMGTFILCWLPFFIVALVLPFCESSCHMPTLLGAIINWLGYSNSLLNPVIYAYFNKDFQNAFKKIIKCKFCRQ
Experimental: as §1

168 GPCRs [4] = molecular target: 168 GPCRs (Homo sapiens, UniProt P21462)
Experimental: as §1

168 GPCRs [5] = molecular target: 168 GPCRs (Homo sapiens, UniProt P21918)
168 GPCRs (Homo sapiens, UniProt P21918), sequence (P21918 whole entry): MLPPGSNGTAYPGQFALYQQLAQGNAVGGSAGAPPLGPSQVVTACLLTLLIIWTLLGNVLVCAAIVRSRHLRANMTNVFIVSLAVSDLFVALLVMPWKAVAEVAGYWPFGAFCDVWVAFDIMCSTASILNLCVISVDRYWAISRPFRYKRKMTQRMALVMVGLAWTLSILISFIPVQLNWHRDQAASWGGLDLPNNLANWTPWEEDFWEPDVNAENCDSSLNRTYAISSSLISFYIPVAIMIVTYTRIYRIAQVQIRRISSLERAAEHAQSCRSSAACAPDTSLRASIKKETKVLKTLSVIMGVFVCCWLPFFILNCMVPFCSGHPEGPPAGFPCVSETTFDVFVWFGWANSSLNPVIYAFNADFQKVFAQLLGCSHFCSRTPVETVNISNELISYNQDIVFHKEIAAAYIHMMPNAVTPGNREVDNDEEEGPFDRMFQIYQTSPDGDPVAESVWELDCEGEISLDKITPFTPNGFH
Experimental: as §1

168 GPCRs [6] = molecular target: 168 GPCRs (Homo sapiens, UniProt P25103)
Experimental: as §1

168 GPCRs [7] = molecular target: 168 GPCRs (Homo sapiens, UniProt P32245); conditions: MC4R
Experimental: as §1

168 GPCRs [8] = molecular target: T1, 168 GPCRs (Homo sapiens, UniProt P32248); conditions: CCR7, Agonist
T1 sequence (P32248 25-378): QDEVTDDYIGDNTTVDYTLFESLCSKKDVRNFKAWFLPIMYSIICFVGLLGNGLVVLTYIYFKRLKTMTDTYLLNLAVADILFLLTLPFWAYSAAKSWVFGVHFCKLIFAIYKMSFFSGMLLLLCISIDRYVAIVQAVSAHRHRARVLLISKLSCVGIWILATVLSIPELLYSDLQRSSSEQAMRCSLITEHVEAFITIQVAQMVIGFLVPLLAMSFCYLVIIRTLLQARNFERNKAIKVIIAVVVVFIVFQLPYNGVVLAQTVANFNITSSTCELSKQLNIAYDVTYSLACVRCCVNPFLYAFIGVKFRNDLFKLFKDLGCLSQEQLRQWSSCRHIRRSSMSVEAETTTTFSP
Experimental: as §1

168 GPCRs [9] = molecular target: 168 GPCRs (Homo sapiens, UniProt P32745)
168 GPCRs (Homo sapiens, UniProt P32745), sequence (P32745 whole entry): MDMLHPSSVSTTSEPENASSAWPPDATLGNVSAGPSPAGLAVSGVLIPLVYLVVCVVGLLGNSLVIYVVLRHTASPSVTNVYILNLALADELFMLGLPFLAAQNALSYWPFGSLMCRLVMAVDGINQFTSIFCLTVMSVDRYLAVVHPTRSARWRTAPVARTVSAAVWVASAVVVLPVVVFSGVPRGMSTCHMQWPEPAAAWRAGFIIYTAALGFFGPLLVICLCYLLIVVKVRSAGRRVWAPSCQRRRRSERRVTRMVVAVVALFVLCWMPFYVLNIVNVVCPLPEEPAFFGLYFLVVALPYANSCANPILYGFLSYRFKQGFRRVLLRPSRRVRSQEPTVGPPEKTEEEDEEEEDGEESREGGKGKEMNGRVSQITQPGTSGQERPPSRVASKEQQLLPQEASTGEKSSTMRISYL
Experimental: as §1

168 GPCRs [10] = molecular target: 168 GPCRs (Homo sapiens, UniProt P34972)
Experimental: as §1

168 GPCRs [11] = molecular target: 168 GPCRs (Homo sapiens, UniProt P34998)
168 GPCRs (Homo sapiens, UniProt P34998), sequence (P34998 24-415): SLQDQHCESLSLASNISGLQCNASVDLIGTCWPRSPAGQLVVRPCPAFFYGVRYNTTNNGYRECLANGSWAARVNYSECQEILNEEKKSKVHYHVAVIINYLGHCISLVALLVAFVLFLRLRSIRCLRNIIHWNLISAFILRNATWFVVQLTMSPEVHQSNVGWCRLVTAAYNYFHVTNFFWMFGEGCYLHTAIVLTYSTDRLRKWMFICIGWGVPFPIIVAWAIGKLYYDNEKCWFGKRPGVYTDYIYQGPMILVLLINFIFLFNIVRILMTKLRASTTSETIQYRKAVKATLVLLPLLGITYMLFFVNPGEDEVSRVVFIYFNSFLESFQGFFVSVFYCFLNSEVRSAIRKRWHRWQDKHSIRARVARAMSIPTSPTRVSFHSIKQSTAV
Experimental: as §1

168 GPCRs [12] = molecular target: 168 GPCRs (Homo sapiens, UniProt P41587)
168 GPCRs (Homo sapiens, UniProt P41587), sequence (P41587 24-438): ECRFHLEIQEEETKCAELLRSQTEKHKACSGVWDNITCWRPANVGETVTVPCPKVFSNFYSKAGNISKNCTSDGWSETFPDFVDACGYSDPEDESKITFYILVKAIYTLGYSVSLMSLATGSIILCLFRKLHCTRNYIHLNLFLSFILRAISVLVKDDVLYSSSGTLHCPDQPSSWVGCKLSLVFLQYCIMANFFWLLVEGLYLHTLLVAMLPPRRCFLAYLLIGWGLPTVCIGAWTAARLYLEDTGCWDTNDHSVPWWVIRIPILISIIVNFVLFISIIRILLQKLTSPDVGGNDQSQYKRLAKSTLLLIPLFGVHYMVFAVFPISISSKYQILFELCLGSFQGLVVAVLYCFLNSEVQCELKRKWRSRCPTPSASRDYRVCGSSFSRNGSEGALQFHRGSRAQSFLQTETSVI
Experimental: as §1

168 GPCRs [13] = molecular target: 168 GPCRs (Homo sapiens, UniProt P46091)
168 GPCRs (Homo sapiens, UniProt P46091), sequence (P46091 whole entry): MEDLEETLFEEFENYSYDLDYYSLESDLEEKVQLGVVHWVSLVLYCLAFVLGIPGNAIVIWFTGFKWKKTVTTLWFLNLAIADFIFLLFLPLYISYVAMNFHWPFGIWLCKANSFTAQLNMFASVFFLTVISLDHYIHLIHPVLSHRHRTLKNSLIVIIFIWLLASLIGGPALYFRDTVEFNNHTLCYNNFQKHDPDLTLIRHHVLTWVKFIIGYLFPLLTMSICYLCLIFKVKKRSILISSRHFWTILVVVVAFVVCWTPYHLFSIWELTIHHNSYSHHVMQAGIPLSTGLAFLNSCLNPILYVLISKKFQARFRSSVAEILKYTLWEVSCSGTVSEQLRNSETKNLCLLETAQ
Experimental: as §1

168 GPCRs [14] = molecular target: 168 GPCRs (Homo sapiens, UniProt P51684); conditions: CCR6, Agonist
Experimental: as §1

168 GPCRs [15] = molecular target: 168 GPCRs (Homo sapiens, UniProt Q8NFJ6)
168 GPCRs (Homo sapiens, UniProt Q8NFJ6), sequence (Q8NFJ6 whole entry): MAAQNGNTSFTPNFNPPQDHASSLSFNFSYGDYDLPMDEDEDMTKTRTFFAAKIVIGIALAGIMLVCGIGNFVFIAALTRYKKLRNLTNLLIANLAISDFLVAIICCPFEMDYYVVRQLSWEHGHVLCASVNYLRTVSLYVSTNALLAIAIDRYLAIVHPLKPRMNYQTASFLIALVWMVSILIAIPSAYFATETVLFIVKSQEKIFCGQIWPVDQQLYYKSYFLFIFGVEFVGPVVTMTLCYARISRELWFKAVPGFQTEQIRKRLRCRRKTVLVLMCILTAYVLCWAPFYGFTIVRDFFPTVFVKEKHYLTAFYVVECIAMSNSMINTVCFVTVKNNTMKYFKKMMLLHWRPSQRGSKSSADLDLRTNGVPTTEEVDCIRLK
Experimental: as §1

168 GPCRs [16] = molecular target: 168 GPCRs (Homo sapiens, UniProt Q8TCW9)
168 GPCRs (Homo sapiens, UniProt Q8TCW9), sequence (Q8TCW9 whole entry): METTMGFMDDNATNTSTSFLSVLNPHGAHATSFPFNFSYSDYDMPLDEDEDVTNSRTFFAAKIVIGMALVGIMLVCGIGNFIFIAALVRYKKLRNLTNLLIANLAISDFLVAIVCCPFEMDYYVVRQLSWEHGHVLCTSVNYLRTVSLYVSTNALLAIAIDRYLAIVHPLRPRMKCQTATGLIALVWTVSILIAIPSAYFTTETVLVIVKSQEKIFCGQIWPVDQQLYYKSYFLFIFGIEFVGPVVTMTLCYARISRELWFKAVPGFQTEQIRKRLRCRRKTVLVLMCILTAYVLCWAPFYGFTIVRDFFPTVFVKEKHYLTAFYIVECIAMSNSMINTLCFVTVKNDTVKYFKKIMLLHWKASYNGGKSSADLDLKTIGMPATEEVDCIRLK
Experimental: as §1

168 GPCRs [17] = molecular target: 168 GPCRs (Homo sapiens, UniProt Q8TDS5)
168 GPCRs (Homo sapiens, UniProt Q8TDS5), sequence (Q8TDS5 whole entry): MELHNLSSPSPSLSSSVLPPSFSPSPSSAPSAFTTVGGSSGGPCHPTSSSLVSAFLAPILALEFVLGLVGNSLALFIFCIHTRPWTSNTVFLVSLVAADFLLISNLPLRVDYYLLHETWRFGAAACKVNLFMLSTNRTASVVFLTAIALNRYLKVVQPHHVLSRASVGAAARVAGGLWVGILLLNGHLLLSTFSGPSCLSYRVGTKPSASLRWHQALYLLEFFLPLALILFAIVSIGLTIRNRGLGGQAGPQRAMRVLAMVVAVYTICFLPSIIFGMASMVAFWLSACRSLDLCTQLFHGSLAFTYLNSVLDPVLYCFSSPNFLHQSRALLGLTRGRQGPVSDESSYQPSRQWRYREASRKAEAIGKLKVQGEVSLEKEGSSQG
Experimental: as §1

168 GPCRs [18] = molecular target: 168 GPCRs (Homo sapiens, UniProt Q8TDV5)
168 GPCRs (Homo sapiens, UniProt Q8TDV5), sequence (Q8TDV5 whole entry): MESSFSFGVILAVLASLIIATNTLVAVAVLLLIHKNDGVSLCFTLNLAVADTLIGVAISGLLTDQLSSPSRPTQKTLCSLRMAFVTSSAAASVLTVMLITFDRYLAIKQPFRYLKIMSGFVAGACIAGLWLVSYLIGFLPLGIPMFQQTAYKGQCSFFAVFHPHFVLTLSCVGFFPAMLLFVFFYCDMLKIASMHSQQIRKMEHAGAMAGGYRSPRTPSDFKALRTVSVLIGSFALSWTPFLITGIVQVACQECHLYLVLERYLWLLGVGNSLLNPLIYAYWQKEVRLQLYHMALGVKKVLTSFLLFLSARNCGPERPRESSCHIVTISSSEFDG
Experimental: as §1

168 GPCRs [19] = molecular target: 168 GPCRs (Homo sapiens, UniProt Q9H1C0)
Experimental: as §1

168 GPCRs [20] = molecular target: 168 GPCRs (Homo sapiens, UniProt Q9Y5N1)
168 GPCRs (Homo sapiens, UniProt Q9Y5N1), sequence (Q9Y5N1 whole entry): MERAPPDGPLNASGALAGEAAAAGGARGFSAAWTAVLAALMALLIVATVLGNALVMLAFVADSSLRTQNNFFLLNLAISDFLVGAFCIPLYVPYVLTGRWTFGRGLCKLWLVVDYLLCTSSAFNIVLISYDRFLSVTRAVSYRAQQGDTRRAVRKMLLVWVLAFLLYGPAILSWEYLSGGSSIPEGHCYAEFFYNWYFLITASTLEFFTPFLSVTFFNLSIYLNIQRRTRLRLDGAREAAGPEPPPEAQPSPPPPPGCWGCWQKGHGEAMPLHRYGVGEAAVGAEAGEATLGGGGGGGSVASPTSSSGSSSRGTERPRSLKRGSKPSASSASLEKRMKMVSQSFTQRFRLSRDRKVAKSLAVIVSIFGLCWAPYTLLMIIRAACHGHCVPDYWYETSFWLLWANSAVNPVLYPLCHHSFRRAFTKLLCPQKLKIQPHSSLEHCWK
Experimental: as §1

168 GPCRs (Homo sapiens, UniProt O43613), sequence (O43613 whole entry): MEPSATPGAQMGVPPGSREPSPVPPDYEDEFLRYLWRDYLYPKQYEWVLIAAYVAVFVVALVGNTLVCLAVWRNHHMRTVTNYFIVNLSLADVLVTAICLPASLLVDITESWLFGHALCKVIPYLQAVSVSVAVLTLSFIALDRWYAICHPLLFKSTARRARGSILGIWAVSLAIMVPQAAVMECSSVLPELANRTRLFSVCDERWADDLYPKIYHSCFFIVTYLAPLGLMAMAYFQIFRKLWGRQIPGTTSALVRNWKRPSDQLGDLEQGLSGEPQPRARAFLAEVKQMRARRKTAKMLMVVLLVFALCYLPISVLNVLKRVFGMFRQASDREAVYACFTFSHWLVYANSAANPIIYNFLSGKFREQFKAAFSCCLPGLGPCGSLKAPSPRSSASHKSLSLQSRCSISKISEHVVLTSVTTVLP

## CNC(C)C(=O)c1ccc2c(c1)OCO2 (stereo not shown) [methylone, 3,4-methylenedioxy-N-methylcathinone]
168 GPCRs [1]; HCRTR1, Agonist mode, 10 uM
  activity at 10 µM: -0.1%
168 GPCRs [1]; HCRTR1, Agonist, 1 uM
  activity at 1 µM: -0.1%
168 GPCRs [2]; 1 uM
  activity at 1 µM: 0%
168 GPCRs [2]; 10 uM
  activity at 10 µM: -0.2%
168 GPCRs [3]; Agonist mode, 10 uM
  activity at 10 µM: -0.1%
168 GPCRs [3]; Agonist, 1 uM
  activity at 1 µM: 0.8%
168 GPCRs [4]; FPR1, Agonist mode, 10 uM
  activity at 10 µM: 0.5%
168 GPCRs [4]; FPR1, Agonist, 1 uM
  activity at 1 µM: 2.2%
168 GPCRs [5]; DRD5, Agonist mode, 10 uM
  activity at 10 µM: -0.2%
168 GPCRs [5]; DRD5, Agonist, 1 uM
  activity at 1 µM: -0.1%
168 GPCRs [6]; TACR1, Agonist mode, 10 uM
  activity at 10 µM: -4.4%
168 GPCRs [6]; TACR1, Agonist, 1 uM
  activity at 1 µM: -3.9%
168 GPCRs [7]; Agonist mode, 10 uM
  activity at 10 µM: -1.1%
168 GPCRs [7]; Agonist, 1 uM
  activity at 1 µM: -1.4%
168 GPCRs [8]; 1 uM
  activity at 1 µM: -3.4%
168 GPCRs [8]; 10 uM
  activity at 10 µM: -3.7%
168 GPCRs [9]; SSTR3, Agonist mode, 10 uM
  activity at 10 µM: 0.3%
168 GPCRs [9]; SSTR3, Agonist, 1 uM
  activity at 1 µM: 0.7%
168 GPCRs [10]; CNR2, Agonist mode, 10 uM
  activity at 10 µM: 3.2%
168 GPCRs [10]; CNR2, Agonist, 1 uM
  activity at 1 µM: 7%
168 GPCRs [11]; CRHR1, Agonist mode, 10 uM
  activity at 10 µM: 1.1%
168 GPCRs [11]; CRHR1, Agonist, 1 uM
  activity at 1 µM: 1.4%
168 GPCRs [12]; VIPR2, Agonist mode, 10 uM
  activity at 10 µM: -0.3%
168 GPCRs [12]; VIPR2, Agonist, 1 uM
  activity at 1 µM: -0.4%
168 GPCRs [13]; GPR1, Agonist mode, 10 uM
  activity at 10 µM: -0.7%
168 GPCRs [13]; GPR1, Agonist, 1 uM
  activity at 1 µM: -0.5%
168 GPCRs [14]; 1 uM
  activity at 1 µM: -2.9%
168 GPCRs [14]; 10 uM
  activity at 10 µM: -3.3%
168 GPCRs [15]; PROKR2, Agonist mode, 10 uM
  activity at 10 µM: -0.6%
168 GPCRs [15]; PROKR2, Agonist, 1 uM
  activity at 1 µM: -0.6%
168 GPCRs [16]; PROKR1, Agonist mode, 10 uM
  activity at 10 µM: -2.8%
168 GPCRs [16]; PROKR1, Agonist, 1 uM
  activity at 1 µM: -1.3%
168 GPCRs [17]; OXER1, Agonist mode, 10 uM
  activity at 10 µM: -3.7%
168 GPCRs [17]; OXER1, Agonist, 1 uM
  activity at 1 µM: 3.2%
168 GPCRs [18]; GPR119, Agonist mode, 10 uM
  activity at 10 µM: -2.2%
168 GPCRs [18]; GPR119, Agonist, 1 uM
  activity at 1 µM: -5.8%
168 GPCRs [19]; GPR92, Agonist mode, 10 uM
  activity at 10 µM: -3.5%
168 GPCRs [19]; GPR92, Agonist, 1 uM
  activity at 1 µM: -1.6%
168 GPCRs [20]; HRH3, Agonist mode, 10 uM
  activity at 10 µM: -3.7%
168 GPCRs [20]; HRH3, Agonist, 1 uM
  activity at 1 µM: -3.4%
